Here are results for three molecules from patent US20200368315A1, “ANTIMICROBIAL PEPTIDES AND ADMIXTURES THEREOF SHOWING ANTIMICROBIAL ACTIVITY AGAINST GRAM-NEGATIVE PATHOGENS” (priority 2017, published 2020).

Molecules are shown by their SMILES. Converted amounts (≈) assume the structure as drawn.

Series [1] relates to Escherichia coli ATCC 25922. Nature of the series: microbe, parasite or virus in culture. It counts as cell-based. The following applies: ATCC 25922. How it is done:
(§1) Testing was performed according to CLSI (Clinical Laboratory Standards Institute) guidelines. Read out of the study was determination of MIC—minimal inhibitory concentration expressed in μg/mL.
(§2) Out of these PBS solutions, 76.8 μL was transferred to 1423.2 μL of MH media in deep well for testing compound alone. […] Out of these working solutions 100 μL were transferred to wells in the third column of 96-well assay plates. Assay plates were previously filled with 50 μL of MH media in all wells except for the wells in the third column.
(§3) Microorganisms used were all revived from skim milk storage at −70° C. by plating them on MH agar plates. The following day a single colony of each microorganism was again streaked on fresh agar plates. The next day, using direct colony suspension method, broth solutions that achieve turbidity equivalent to 0.5 McFarland standard for each microorganism were prepared. […] Out of these suspensions, actual inoculums were prepared by diluting them 100× with MH media giving final microorganism count of 2-8×10^5 CFU/mL. For each strain of microorganisms, 20 mL of these inoculum solutions were prepared. From the second to the twelfth column of 96-well plates, 50 μL of these solutions were transferred per well. To the first column, 50 μL per well of pure growth media was added. In this manner the first column was used as sterility control of media used, the second column was used as control of microorganism's growth and the rest of the plate was used for MIC determination. All plates were incubated for 16-24 h at 37° C.
(§4) MIC value was determined by visual inspection of bacterial growth within 96-well plates. The first column in which there was no visible growth of bacteria was determined as MIC value for peptide or combination tested in that particular row.

Series [2] has as its system Pseudomonas aeruginosa ATCC 27853. Nature of the series: microbe, parasite or virus in culture. It counts as cell-based. Particulars: ATCC 27853. How it is done: as §1, §2, §3, §4
Series [3] concerns Klebsiella pneumoniae ATCC 700603. The experiment in a line: microbe, parasite or virus in culture. It counts as cell-based. Particulars: ATCC 700603. How it is done:
as §1, §2, §3, §4

Series [4] has as its system Acinetobacter baumannii ATCC 17978. Nature of the series: microbe, parasite or virus in culture. Particulars: ATCC 17978. It counts as cell-based. The method, then:
as §1, §2, §3, §4

A short description of the next series: in vitro. The following applies: human. The method, then:
(§5) ATP levels were measured by adding 50 μL of CellTiter-Glo reagent to each well and after 5 minutes of incubation luminescence was measured with SpectraMax i3.
(§6) 96-well plates were seeded with HEK293 cells at concentration of 30,000 cells per well in 100 μL of DMEM growth media supplemented with 1% NEAA and 10% FBS. Border wells were filled with 100 μL of sterile PBS. The next day compounds were added to cells. Compounds were first 2× diluted in 96-well V-bottom plate in PBS. After that compounds were mixed with media in 96-deep-well plate for final concentrations. Growth media from 3 plates was aspirated and replaced with 100 μL of prepared compounds. Compounds were tested in duplicate. ATP levels were measured by adding 50 μL of CellTiter-Glo reagent to each well and after 5 minutes of incubation luminescence was measured with SpectraMax i3. […] The potential effects were then calculated and presented as IC50 values (μg/mL).

Series [5] concerns Klebsiella pneumoniae B1945, clinical isolate. The experiment in a line: microbe, parasite or virus in culture. Particulars: B1945, clinical isolate. How it is done:
as §1, §2, §3, §4

Series [6] deals with Acinetobacter baumannii ATCC BAA-1605. Nature of the series: microbe, parasite or virus in culture. Particulars: ATCC BAA-1605. The method, then: as §1, §2, §3, §4
In series [7] the test system is Pseudomonas aeruginosa ATCC BAA-2108. The experiment in a line: microbe, parasite or virus in culture. Particulars: ATCC BAA-2108. How it is done: as §1, §2, §3, §4
Series [8] concerns Klebsiella pneumoniae ATCC BAA-2524. Nature of the series: microbe, parasite or virus in culture. Particulars: ATCC BAA-2524. The method, then: as §1, §2, §3, §4
Series [9] has as its system Escherichia coli ATCC BAA-2452. The experiment in a line: microbe, parasite or virus in culture. The following applies: ATCC BAA-2452. The method, then:
as §1, §2, §3, §4

Series [10] relates to Acinetobacter baumannii B2026, clinical isolate. Nature of the series: microbe, parasite or virus in culture. The following applies: B2026, clinical isolate. The method, then: as §1, §2, §3, §4
Series [11] concerns Escherichia coli B1927, clinical isolate. Nature of the series: microbe, parasite or virus in culture. The following applies: B1927, clinical isolate. The method, then: as §1, §2, §3, §4
For series [12], the system named is Pseudomonas aeruginosa B1954, clinical isolate. The experiment in a line: microbe, parasite or virus in culture. Particulars: B1954, clinical isolate. How it is done:
as §1, §2, §3, §4

Another series has as its system E. coli LMG15862. Nature of the series: microbe, parasite or virus in culture. It counts as cell-based, Escherichia coli. Particulars: LMG15862. Summed up: (§7)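 Minimum inhibitory concentrations come from a duplicate liquid microdilution test in Mueller Hinton Broth. Each well receives a final inoculum of 5*10^5 CFU/mL against two-fold compound dilutions. The lowest concentration without visible growth counts as the MIC.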

In a further series the test system is HEK293 cells. Nature of the series: in vitro. The method, then: as §5, §6
The test system of series [13] is human red blood cells (HRBc). Nature of the series: Hemolytic test. Particulars: red cells of human, 1 h. How it is done: Fresh human red blood cells (HRBc) were used for the hemolytic tests. After incubation with different concentrations of test compounds at 37° C. for 1 hour, the absorbance of the supernatant were measured.
A further series relates to E. aerogenes LMG 02094. Nature of the series: microbe, parasite or virus in culture. The series is classed as cell-based, Enterobacter aerogenes. Particulars: LMG 02094. Summed up: as §7
The test system of the next series is A. baumannii LMG01041. The experiment in a line: microbe, parasite or virus in culture. It counts as cell-based, Acinetobacter baumannii. The following applies: LMG01041. Summed up: as §7
In a further series the test system is L. lactis MG1363. The following applies: MG1363.

For the molecule `CC[C@@H](C)[C@@H](NC(=O)[C@H](N)CCCNC(=N)N)C(=O)N[C@@H](C(=O)N[C@H](CCC(N)=O)C(=O)N[C@H](CCCNC(=N)N)C(=O)N[C@@H](C(=O)N[C@H](CCCCN)C(=O)N[C@H](CCCCN)C(=O)N[C@H](Cc1c[nH]c2ccccc12)C(=O)N[C@H](CC(C)C)C(=O)N[C@H](CCCNC(=N)N)C(N)=O)[C@H](C)CC)C(C)C` [D8], the MIC in [1] was 8 µg/mL; in series [2], 64 µg/mL; in [3], more than 128 µg/mL; in series [4], 16 µg/mL; in [5] it was 32 µg/mL; in [6] it was 16 µg/mL. The MIC in [7] was more than 128 µg/mL; in [8], more than 128 µg/mL; in series [9], 8 µg/mL; in series [10], 16 µg/mL; in series [11] it was 4 µg/mL; in series [12], 128 µg/mL. In the series “in vitro”, this molecule showed an IC50 of more than 64 µg/mL.

Turning to `CC[C@@H](C)[C@@H](NC(=O)[C@H](N)CCCNC(=N)N)C(=O)N[C@@H](C(=O)N[C@H](CCC(N)=O)C(=O)N[C@H](CCCNC(=N)N)C(=O)N[C@@H](C(=O)N[C@H](CCCCN)C(=O)N[C@H](CCCCN)C(=O)N[C@H](Cc1c[nH]c2ccccc12)C(=O)N[C@H](CC(C)C)C(=O)N[C@H](CCCNC(=N)N)C(N)=O)[C@H](C)CC)C(C)C` [GNP-D8], the MIC value against E. coli LMG15862 is 4 µM (≈ 5.98 µg/mL); in series [6], 10.7 µM; in [7] it was more than 85.62 µM; in series [8], more than 85.62 µM; in series [9] it was 5.35 µM; in series [10], 10.7 µM. Further, the values for the MIC value (in series [12]; against E. aerogenes LMG 02094; in the series with A. baumannii LMG01041) were 85.62 µM, 32 µM (≈ 47.8 µg/mL) and 8 µM (≈ 12 µg/mL), respectively. In addition, in the series with HEK293 cells, the “Effect on ATP levels” value is reported as “do not affect the ATP levels”. The IC50 in the series “in vitro” is not below 42.8 µM. The “HC50 (hemolytic activity)” value in [13] was more than 200 µM. In addition, the “MIC value of antimicrobial compounds alone” value in the series with L. lactis MG1363 was determined as 16 µM.

As for `CC[C@@H](C)[C@@H](NC(=O)[C@@H](CCCNC(=N)N)NC(=O)[C@@H](CCCNC(=N)N)NC(=O)[C@@H](Cc1ccccc1)NC(=O)[C@@H](CC(C)C)NC(=O)[C@@H](CCCNC(=N)N)NC(=O)[C@H](N)CCCNC(=N)N)C(=O)N[C@H](CC(C)C)C(=O)N[C@H](CCCNC(=N)N)C(=O)N[C@H](Cc1c[nH]c2ccccc12)C(=O)N[C@H](CC(C)C)C(N)=O` [D6], the MIC in series [1] was determined as 2 µg/mL; in series [2] it was 4 µg/mL; in series [3] it was 4 µg/mL; in series [4], 2 µg/mL; in [5], 8 µg/mL; in series [6], 8 µg/mL. Further, the MIC in series [7] stood at 8 µg/mL; in series [8] it was 4 µg/mL; in [9], 2 µg/mL; in [10] it was 4 µg/mL; in [11], 2 µg/mL; in series [12] it was 4 µg/mL. Moreover, the IC50 in “in vitro” was found to be 52.1 µg/mL.
